Results published in patent US20220304349A1, “Steviol Glycoside Compositions for Oral Ingestion or Use” (CARGILL, Incorporated, priority 2016, published 2022).

Assays:
Format in all cases: in vivo, human
[1] = Sensory evaluation by two to three experienced tasters, solutions in reverse osmosis water (Example 5, Tests A and B); conditions: 200 ppm in water, Test A
Method: (§1) Glycoside samples (SG101-104) were isolated and purified from fermentation broth, purified Rebs A, B, and D are of leaf origin and Reb M is chemically synthesized. All samples were dissolved in reverse osmosis water at the concentrations indicated. Unsweetened black tea was used in one set of experiments. Approximately 2-3 milliliters of each solution was tasted and sensory evaluations conducted by two to three experienced tasters. Test A
As used herein, “sucrosey” means having a flavor profile, a sweetness profile, or a flavor profile and a sweetness pofile more similar to that of sucrose.

[2] = Sensory evaluation by experienced tasters in unsweetened black tea (Example 5, Test A); conditions: about 200 ppm in tea
Method: as §1

[3] = SEV measurement by trained sensory panel in citric acid buffer at pH=3.0; conditions: for SEV: citric acid buffer pH=3.0; for Sucrose equivalent value / relative sweetness scale- sucrose = 1: 250 ppm in citric buffer, pH = 3.0
Description: Sweetness may be determined by measuring sucrose equivalent values (SEV) using methods and processes well known to those skilled in the art. For example, SEV may be determined by measuring sweetness equivalence to a reference sucrose solution. Typically, taste panelists are trained to detect and scale sweetness of reference sucrose solutions containing between 10 g to 150 g sucrose/kg (1 to 15 wt % aqueous sucrose solution). A sweetener composition containing one or more glycosides are then tasted at a series of dilutions to determine the concentration of the sweetener composition that is as sweet as a given sucrose reference. For example, if a sweetened solution is as sweet as a 5 wt % sucrose solution, then the sweetened solution is assigned a SEV of 5.
SEV measurements for SG101-104 (listed above and in Table 12) were performed according to the following procedure: A trained sensory panel evaluated solutions of SG101, SG102, SG103, and SG104 at the concentrations specified. Solutions were made in a citric acid buffer at pH=3.0. All solutions were heated to 55° C. for 12 minutes to ensure that all the glycoside material was completely dissolved. The solutions were allowed to cool to room temperature before serving to the panelists. Each solution was given a random 3-digit code and was served to the panelists in random order. Panelists dispensed 2 mL of each solution into their mouths from a pipette. The panelists were then asked to rate the “sweetness intensity” of the solutions and mark their responses on an un-anchored, 15 cm line scale. The length of the line corresponds to the scale values (1-15) on which the participants were trained. The panelists' responses were measured, compiled, and averaged for each sample. Each sample was tested by approximately 12 trained panelists.

Compound | Sensory comments [1] | Sensory comments [2] | SEV ([3]; 200 ppm) | SEV ([3]; 400 ppm) | SEV ([3]; 500 ppm) | Sucrose equivalent value [3] | relative sweetness scale- sucrose = 1 [3] [X]
C=C1C[C@@]23CCC4[C@](C)(C(=O)OC5OC(CO)C(O)C(O)C5OC5OC(CO)C(O)C(O)C5O)CCC[C@@]4(C)[C@@H]2CC[C@]1(OC1OC(COC2OC(CO)C(O)C(O)C2O)C(O)C(OC2OC(CO)C(O)C(O)C2O)C1OC1OC(CO)C(O)C(O)C1O)C3 (some centres unmarked) [SG101] | not sweet, astringent, cloying—mouth drying on the tongue | Zero sweetness, seems less than in water, naked tea | 0.6 | 1.2 | 1.6 | – | –
C=C1C[C@@]23CCC4[C@](C)(C(=O)OC5OC(CO)C(O)C(OC6OC(CO)C(O)C(O)C6O)C5OC5OC(CO)C(O)C(O)C5O)CCC[C@@]4(C)[C@@H]2CC[C@]1(OC1OC(COC2OC(CO)C(O)C(O)C2O)C(O)C(OC2OC(CO)C(O)C(O)C2O)C1OC1OC(CO)C(O)C(O)C1O)C3 (some centres unmarked) [SG102] | a bit sweeter than SG101, sweetness does have quick onset | Not sweet, slightly less astringent, some additional roundedness | 1.0 | 1.5 | – | – | –
C=C1C[C@@]23CCC4[C@](C)(C(=O)OC5OC(CO)C(O)C(O)C5OC5OC(CO)C(O)C(O)C5O)CCC[C@@]4(C)[C@@H]2CC[C@]1(OC1OC(CO)C(O)C(OC2OC(COC4OC(CO)C(O)C(O)C4O)C(O)C(O)C2O)C1OC1OC(CO)C(O)C(O)C1O)C3 (some centres unmarked) [SG103] | as sweet or sweeter than 200 ppm Reb M, more sucrosey, sugary quality characteristics (high fructose corn syrup (HFCS), cotton candy notes) are reminiscent of Reb M at 400 ppm but not as sweet, “fuller” feeling | Slower onset than Reb M by itself, not as sweet as Reb M, slightly more licorice aftertaste | – | – | – | 4.8 | 192
C=C1C[C@@]23CCC4[C@](C)(C(=O)OC5OC(CO)C(O)C(OC6OC(CO)C(O)C(O)C6O)C5OC5OC(CO)C(O)C(O)C5O)CCC[C@@]4(C)[C@@H]2CC[C@]1(OC1OC(CO)C(O)C(OC2OC(COC4OC(CO)C(O)C(O)C4O)C(O)C(O)C2O)C1OC1OC(CO)C(O)C(O)C1O)C3 (some centres unmarked) [SG104] | as sweet or sweeter than 200 ppm Reb M, more rounded sweetness, enhanced sugar quality effects (sensations reminiscent of sucrose, vanilla), “fuller” feeling | As sweet as Reb M, very sucrosey compared to Reb M, a little back end licorice | – | – | – | 6.5 | 260
